Literature values, collected in patent US20110015587A1, “Irrigation Device and Method Using Same” (priority 2009, published 2011).

Legend:
[1] = test system: bacteria; conditions: very low concentrations
[2] = test system: gram-negative and gram-positive bacteria, fungi and yeast including MRSA, Pseudomanas aeruginosa, VRE
[3] = test system: human cells
[4] = test system: cellular components of wound healing
[5] = test system: bacteria; conditions: 2.6 ppm, 5 minutes
[6] = test system: Escherichia coli; conditions: Escherichia coli exposed to hypochlorous acid

Polyaminopropyl biguanide [PAPB]
bactericidal concentration [1]: 10 mg/L
activity against gram-negative and gram-positive bacteria, fungi and yeast [2]: active
toxicity to higher organisms such as human cells [3]: very low toxicity

povidone-iodine
cytotoxicity to the cellular components of wound healing [4]: cytotoxic

OCl [Hypochlorous acid]
growth inhibition [5]: 100%
time to loss of viability [6]: less than 100 ms
